Measured values published in US6841661B2, “Glycopeptide antibacterial compounds, compositions containing same and methods of using same” (Princeton Univerisity, priority 1999, dated 2005).

Columns and labels:
[1] = test system: E. faecium CL 4931 (VanA); test: microbe, parasite or virus in culture; assay type: cell-based; parameters: CL4931 (in vitro testing): unit not given here; settings: Tables 7 and 8; unit not given
Method in brief: (§1)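 Twofold broth microdilution per modified NCCLS M7-A4, 35 °C. Enterococci and VISA/MRSA in BHI (VISA/MRSA precultured in TSB + 10% HS), E. coli in MH II. Inocula ~1-5×10^6 CFU/ml for enterococci, ~3-7×10^5 CFU/ml otherwise. MIC is the lowest concentration with no visible growth, read at 18-20 hr (E. coli) or 22-24 hr.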

[2] = test system: E. faecium CL 5053 (VanA); test: microbe, parasite or virus in culture; assay type: cell-based; parameters: CL5053 (in vitro testing): unit not given here; settings: Tables 7 and 8; unit not given
Method in brief: as §1

[3] = test system: E. faecium CL 5242 (VanA); test: microbe, parasite or virus in culture; assay type: cell-based; parameters: CL5242 (in vitro testing): unit not given here; settings: Tables 7 and 8; unit not given
Method in brief: as §1

[4] = test system: E. faecalis CL 4877 (VanB); test: microbe, parasite or virus in culture; assay type: cell-based; parameters: CL4877 (in vitro testing): unit not given here; settings: Tables 7 and 8; unit not given
Method in brief: (§2)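 NCCLS-based microdilution, 35 °C. Media: BHI for VanB E. faecalis and VISA/MRSA, MH II for E. coli envA-. Inoculum: enterococci ~1-5×10^6 CFU/ml, others ~3-7×10^5 CFU/ml. Growth read at 22-24 hr (E. coli 18-20 hr).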

[5] = test system: CL 4931, CL 5053, CL 5242 and CL 4877; assay type: cell-based, E. faecium, E. faecalis; parameters: unit not given here; settings: mean of CL4931, CL5053, CL5242, CL4877; unit not given
Method in brief: as §2

CNC(CC(C)C)C(=O)NC1C(=O)NC(CC(N)=O)C(=O)NC2C(=O)NC3C(=O)NC(C(=O)NC(C(=O)O)c4cc(O)cc(O)c4-c4cc3ccc4O)C(O)c3ccc(c(Cl)c3)Oc3cc2cc(c3OC2OC(CN)C(O)C(O)C2OC2CC(C)(NCc3ccc(OCc4ccc(Cl)cc4Cl)cc3)C(O)C(C)O2)Oc2ccc(cc2Cl)C1O (centres unmarked) [Compound 173]
CL4931 (in vitro testing) [1]: 8 | CL5053 (in vitro testing) [2]: 8 | CL5242 (in vitro testing) [3]: 1 | CL4877 (in vitro testing) [4]: 2 | Mean [5]: 4.75

CNC(CC(C)C)C(=O)NC1C(=O)NC(CC(N)=O)C(=O)NC2C(=O)NC3C(=O)NC(C(=O)NC(C(=O)O)c4cc(O)cc(O)c4-c4cc3ccc4O)C(O)c3ccc(c(Cl)c3)Oc3cc2cc(c3OC2OC(CN)C(O)C(O)C2OC2CC(C)(NCc3ccc(OCc4cc(Cl)ccc4Cl)cc3)C(O)C(C)O2)Oc2ccc(cc2Cl)C1O (centres unmarked) [Compound 174]
CL4931 (in vitro testing) [1]: 16 | CL5053 (in vitro testing) [2]: 16 | CL5242 (in vitro testing) [3]: 8 | CL4877 (in vitro testing) [4]: 16 | Mean [5]: 14

CNC(CC(C)C)C(=O)NC1C(=O)NC(CC(N)=O)C(=O)NC2C(=O)NC3C(=O)NC(C(=O)NC(C(=O)O)c4cc(O)cc(O)c4-c4cc3ccc4O)C(O)c3ccc(c(Cl)c3)Oc3cc2cc(c3OC2OC(CN)C(O)C(O)C2OC2CC(C)(NCc3ccc(OCc4cc(Cl)cc(Cl)c4)cc3)C(O)C(C)O2)Oc2ccc(cc2Cl)C1O (centres unmarked) [Compound 175]
CL4931 (in vitro testing) [1]: 4 | CL5053 (in vitro testing) [2]: 4 | CL5242 (in vitro testing) [3]: 2 | CL4877 (in vitro testing) [4]: 2 | Mean [5]: 3

CNC(CC(C)C)C(=O)NC1C(=O)NC(CC(N)=O)C(=O)NC2C(=O)NC3C(=O)NC(C(=O)NC(C(=O)O)c4cc(O)cc(O)c4-c4cc3ccc4O)C(O)c3ccc(c(Cl)c3)Oc3cc2cc(c3OC2OC(CN)C(O)C(O)C2OC2CC(C)(NCc3ccc(OCc4c(Cl)cccc4Cl)cc3)C(O)C(C)O2)Oc2ccc(cc2Cl)C1O (centres unmarked) [Compound 176]
CL4931 (in vitro testing) [1]: 16 | CL5053 (in vitro testing) [2]: 16 | CL5242 (in vitro testing) [3]: 4 | CL4877 (in vitro testing) [4]: >16 | Mean [5]: 13

CNC(CC(C)C)C(=O)NC1C(=O)NC(CC(N)=O)C(=O)NC2C(=O)NC3C(=O)NC(C(=O)NC(C(=O)O)c4cc(O)cc(O)c4-c4cc3ccc4O)C(O)c3ccc(c(Cl)c3)Oc3cc2cc(c3OC2OC(CN)C(O)C(O)C2OC2CC(C)(NCc3ccc(OCc4ccc(C(=O)OC)cc4)cc3)C(O)C(C)O2)Oc2ccc(cc2Cl)C1O (centres unmarked) [Compound 177]
CL4931 (in vitro testing) [1]: >16 | CL5053 (in vitro testing) [2]: >16 | CL5242 (in vitro testing) [3]: 4 | CL4877 (in vitro testing) [4]: >16 | Mean [5]: 13

CNC(CC(C)C)C(=O)NC1C(=O)NC(CC(N)=O)C(=O)NC2C(=O)NC3C(=O)NC(C(=O)NC(C(=O)O)c4cc(O)cc(O)c4-c4cc3ccc4O)C(O)c3ccc(c(Cl)c3)Oc3cc2cc(c3OC2OC(CN)C(O)C(O)C2OC2CC(C)(NCc3ccc(OCc4ccc([N+](=O)[O-])cc4)cc3)C(O)C(C)O2)Oc2ccc(cc2Cl)C1O (centres unmarked) [Compound 178]
CL4931 (in vitro testing) [1]: 32 | CL5053 (in vitro testing) [2]: >32 | CL5242 (in vitro testing) [3]: 8 | CL4877 (in vitro testing) [4]: >32 | Mean [5]: 27

CNC(CC(C)C)C(=O)NC1C(=O)NC(CC(N)=O)C(=O)NC2C(=O)NC3C(=O)NC(C(=O)NC(C(=O)O)c4cc(O)cc(O)c4-c4cc3ccc4O)C(O)c3ccc(c(Cl)c3)Oc3cc2cc(c3OC2OC(CN)C(O)C(O)C2OC2CC(C)(NCc3ccc(OCc4ccc(C(F)(F)F)cc4)cc3)C(O)C(C)O2)Oc2ccc(cc2Cl)C1O (centres unmarked) [Compound 179]
CL4931 (in vitro testing) [1]: 8 | CL5053 (in vitro testing) [2]: 8 | CL5242 (in vitro testing) [3]: 1 | CL4877 (in vitro testing) [4]: 4 | Mean [5]: 3.25

CNC(CC(C)C)C(=O)NC1C(=O)NC(CC(N)=O)C(=O)NC2C(=O)NC3C(=O)NC(C(=O)NC(C(=O)O)c4cc(O)cc(O)c4-c4cc3ccc4O)C(O)c3ccc(c(Cl)c3)Oc3cc2cc(c3OC2OC(CN)C(O)C(O)C2OC2CC(C)(NCc3ccc(OCc4ccccc4C(F)(F)F)cc3)C(O)C(C)O2)Oc2ccc(cc2Cl)C1O (centres unmarked) [Compound 180]
CL4931 (in vitro testing) [1]: 16 | CL5053 (in vitro testing) [2]: 16 | CL5242 (in vitro testing) [3]: 2 | CL4877 (in vitro testing) [4]: 16 | Mean [5]: 12.5

CNC(CC(C)C)C(=O)NC1C(=O)NC(CC(N)=O)C(=O)NC2C(=O)NC3C(=O)NC(C(=O)NC(C(=O)O)c4cc(O)cc(O)c4-c4cc3ccc4O)C(O)c3ccc(c(Cl)c3)Oc3cc2cc(c3OC2OC(CN)C(O)C(O)C2OC2CC(C)(NCc3ccc(OCc4ccc(F)cc4Cl)cc3)C(O)C(C)O2)Oc2ccc(cc2Cl)C1O (centres unmarked) [Compound 181]
CL4931 (in vitro testing) [1]: 16 | CL5053 (in vitro testing) [2]: 32 | CL5242 (in vitro testing) [3]: 4 | CL4877 (in vitro testing) [4]: 32 | Mean [5]: 21

CNC(CC(C)C)C(=O)NC1C(=O)NC(CC(N)=O)C(=O)NC2C(=O)NC3C(=O)NC(C(=O)NC(C(=O)O)c4cc(O)cc(O)c4-c4cc3ccc4O)C(O)c3ccc(c(Cl)c3)Oc3cc2cc(c3OC2OC(CN)C(O)C(O)C2OC2CC(C)(NCc3ccc(OCc4ccccc4Cl)cc3)C(O)C(C)O2)Oc2ccc(cc2Cl)C1O (centres unmarked) [Compound 182]
CL4931 (in vitro testing) [1]: >16 | CL5053 (in vitro testing) [2]: >16 | CL5242 (in vitro testing) [3]: 4 | CL4877 (in vitro testing) [4]: >16 | Mean [5]: 13

CNC(CC(C)C)C(=O)NC1C(=O)NC(CC(N)=O)C(=O)NC2C(=O)NC3C(=O)NC(C(=O)NC(C(=O)O)c4cc(O)cc(O)c4-c4cc3ccc4O)C(O)c3ccc(c(Cl)c3)Oc3cc2cc(c3OC2OC(CN)C(O)C(O)C2OC2CC(C)(NCc3ccc(OCc4ccc(Cl)c(Cl)c4)cc3Cl)C(O)C(C)O2)Oc2ccc(cc2Cl)C1O (centres unmarked) [Compound 183]
CL4931 (in vitro testing) [1]: 8 | CL5053 (in vitro testing) [2]: 4 | CL5242 (in vitro testing) [3]: 2 | CL4877 (in vitro testing) [4]: 2 | Mean [5]: 4

CNC(CC(C)C)C(=O)NC1C(=O)NC(CC(N)=O)C(=O)NC2C(=O)NC3C(=O)NC(C(=O)NC(C(=O)O)c4cc(O)cc(O)c4-c4cc3ccc4O)C(O)c3ccc(c(Cl)c3)Oc3cc2cc(c3OC2OC(CN)C(O)C(O)C2OC2CC(C)(NCc3ccc(OCc4ccc(Cl)c(Cl)c4)c(OC)c3)C(O)C(C)O2)Oc2ccc(cc2Cl)C1O (centres unmarked) [Compound 184]
CL4931 (in vitro testing) [1]: 4 | CL5053 (in vitro testing) [2]: 4 | CL5242 (in vitro testing) [3]: 2 | CL4877 (in vitro testing) [4]: 8 | Mean [5]: 4.5

CNC(CC(C)C)C(=O)NC1C(=O)NC(CC(N)=O)C(=O)NC2C(=O)NC3C(=O)NC(C(=O)NC(C(=O)O)c4cc(O)cc(O)c4-c4cc3ccc4O)C(O)c3ccc(c(Cl)c3)Oc3cc2cc(c3OC2OC(CN)C(O)C(O)C2OC2CC(C)(NCc3ccc(OCc4ccc(Cl)c(Cl)c4)cc3OC)C(O)C(C)O2)Oc2ccc(cc2Cl)C1O (centres unmarked) [Compound 185]
CL4931 (in vitro testing) [1]: 8 | CL5053 (in vitro testing) [2]: 16 | CL5242 (in vitro testing) [3]: 4 | CL4877 (in vitro testing) [4]: 4 | Mean [5]: 8

CNC(CC(C)C)C(=O)NC1C(=O)NC(CC(N)=O)C(=O)NC2C(=O)NC3C(=O)NC(C(=O)NC(C(=O)O)c4cc(O)cc(O)c4-c4cc3ccc4O)C(O)c3ccc(c(Cl)c3)Oc3cc2cc(c3OC2OC(CN)C(O)C(O)C2OC2CC(C)(NCc3ccc(Oc4ccc(Cl)c(Cl)c4)cc3)C(O)C(C)O2)Oc2ccc(cc2Cl)C1O (centres unmarked) [Compound 186]
CL4931 (in vitro testing) [1]: 8 | CL5053 (in vitro testing) [2]: 8 | CL5242 (in vitro testing) [3]: 2 | CL4877 (in vitro testing) [4]: 8 | Mean [5]: 6.5

CNC(CC(C)C)C(=O)NC1C(=O)NC(CC(N)=O)C(=O)NC2C(=O)NC3C(=O)NC(C(=O)NC(C(=O)O)c4cc(O)cc(O)c4-c4cc3ccc4O)C(O)c3ccc(c(Cl)c3)Oc3cc2cc(c3OC2OC(CN)C(O)C(O)C2OC2CC(C)(NCc3ccc(C(=O)Oc4ccc(Cl)cc4)cc3)C(O)C(C)O2)Oc2ccc(cc2Cl)C1O (centres unmarked) [Compound 187]
CL4931 (in vitro testing) [1]: 16 | CL5053 (in vitro testing) [2]: 16 | CL5242 (in vitro testing) [3]: 4 | CL4877 (in vitro testing) [4]: 32 | Mean [5]: 17

CNC(CC(C)C)C(=O)NC1C(=O)NC(CC(N)=O)C(=O)NC2C(=O)NC3C(=O)NC(C(=O)NC(C(=O)O)c4cc(O)cc(O)c4-c4cc3ccc4O)C(O)c3ccc(c(Cl)c3)Oc3cc2cc(c3OC2OC(CN)C(O)C(O)C2OC2CC(C)(NCc3ccc(C(=O)Oc4ccc(Cl)c(Cl)c4)cc3)C(O)C(C)O2)Oc2ccc(cc2Cl)C1O (centres unmarked) [Compound 188]
CL4931 (in vitro testing) [1]: 8 | CL5053 (in vitro testing) [2]: 16 | CL5242 (in vitro testing) [3]: 4 | CL4877 (in vitro testing) [4]: 16 | Mean [5]: 11
